Experimental data taken from ChEMBL document CHEMBL1201862, “PubChem BioAssay data set” (2004).
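48-hour exposure; five concentrations; linearly interpolated endpoints. Abbreviation: GI50, concentration required for 50% inhibition of growth.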 Activity calls are given as the source filed them. Cut-off read from the data, not from the text of the source: active = GI50 up to about 1.1 µM and inactive = higher.

Columns and labels:
Experiment in all cases: NCI anticancer screen, dose series, 48 h
COLO 205 = test system: COLO 205
K562 = test system: K562
SK-MEL-28 = test system: SK-MEL-28
MCF7 = test system: MCF7
A498 = test system: A498
OVCAR-5 = test system: OVCAR-5
HL-60 = test system: HL-60
SF-539 = test system: SF-539
NCI/ADR-RES = test system: NCI/ADR-RES
BT-549 = test system: BT-549
HCC 2998 = test system: HCC 2998
EKVX = test system: EKVX
MDA-MB-231 = test system: MDA-MB-231
UACC-62 = test system: UACC-62
SR = test system: SR
HOP-62 = test system: HOP-62
SW-620 = test system: SW-620
SK-MEL-2 = test system: SK-MEL-2
SN12C = test system: SN12C
HT-29 = test system: HT-29

Measured: GI50

COC1/C=C/OC2(C)Oc3c(C)c(O)c4c(c3C2=O)C(=O)C=C(NC(=O)/C(C)=C\C=C\C(C)C(OC=O)C(C)C(O)C(C)C(OC(C)=O)C1C)C4=O (stereo not given)
inactive: COLO 205 4.59 µM | K562 3.61 µM | SK-MEL-28 6.64 µM | MCF7 2.93 µM | A498 18.6 µM | OVCAR-5 20.7 µM | HL-60 2.33 µM | SF-539 17.6 µM | NCI/ADR-RES 17.5 µM | BT-549 11.1 µM | HCC 2998 19.6 µM | EKVX 14.7 µM | MDA-MB-231 13.4 µM | UACC-62 12.7 µM | SR 2.77 µM | HOP-62 18.7 µM | SW-620 4.04 µM | SK-MEL-2 20 µM | SN12C 15.2 µM | HT-29 10.5 µM

O=C(CCc1ccc(O)c(O)c1)NCCc1cc(O)cc(OCc2ccccc2)c1
inactive: COLO 205 20.6 µM | K562 37 µM | SK-MEL-28 44.3 µM | MCF7 26.9 µM | A498 > 100 µM | OVCAR-5 87.9 µM | HL-60 10.9 µM | SF-539 27.2 µM | NCI/ADR-RES 43.5 µM | BT-549 10.6 µM | HCC 2998 17.1 µM | EKVX 53.5 µM | MDA-MB-231 27.2 µM | UACC-62 31.3 µM | SR 21.1 µM | HOP-62 61.1 µM | SW-620 25.9 µM | SK-MEL-2 43.1 µM | SN12C 24.9 µM | HT-29 38.9 µM
